The values that follow come from patent US12478689B2, “Anti-CD19 antibody drug conjugates” (AbbVie Biotherapeutics Inc., priority 2022, dated 2025).

In series [1] the test system is Farage, SU-DHL-6, OCI-LY19 cells. The following applies: GRM 100 nM, ADC-1 1 μM; all 3 cell lines.
Series [2] concerns RS4;11 (ALL). The following applies: read-out: EC50 in vitro cytotoxicity (% cell viability), 5-day compound treatment, FIG. 1.
Series [3] relates to RS4;11 tumors. Kind of series: ALL subcutaneous xenograft in CB17/SCID mice. The format is in vivo. The settings on record: FIG. 11; fucosylated mAb and ADC-1 used; prednisolone [QD×5]×3; ADC-1 single low dose. The source says: Food and water were available ad libitum.
Intraperitoneal route of administration was used.
Tumor volume was estimated one to two times weekly.

Consider `C[C@]12C=CC(=O)C=C1[C@@H](F)C[C@H]1[C@@H]3C[C@H]4O[C@@H](c5ccc(Cc6cccc(N)c6)cc5)O[C@@]4(C(=O)CO)[C@@]3(C)C[C@H](O)[C@@]12F` [Compound of Formula IV, (2S,6aS,6bR,7S,8aS,8bS,10R,11aR,12aS,12bS)-10-(4-(3-Aminobenzyl)phenyl)-2,6b-difluoro-7-hydroxy-8b-(2-hydroxyacetyl)-6a,8a-dimethyl-1,2,6a,6b,7,8,8a,8b,11a,12,12a,12b-dodecahydro-4H-naphtho[2′,1′:4,5]indeno[1,2-d][1,3]dioxol-4-one], for which the “Apoptosis (BIM, cleaved caspase-3, cleaved PARP)” value in series [1] was “induced apoptosis”. Regarding `C[C@@H]1C[C@H]2[C@@H]3CCC4=CC(=O)C=C[C@]4(C)[C@@]3(F)[C@@H](O)C[C@]2(C)[C@@]1(O)C(=O)CO` [dexamethasone], the EC50 (usually the concentration needed to bring the measured effect to its halfway point) in series [2] is 3.28 nM. With `C[C@]12C=CC(=O)C=C1CC[C@@H]1[C@@H]2[C@@H](O)C[C@@]2(C)[C@H]1CC[C@]2(O)C(=O)CO` [prednisolone, reference compound], the Anti-tumor activity entry in series [3] is given as “modest anti-tumor activity”. Also, the EC50 in series [2] is 82.9 nM.
